Results published in patent US7482379B2, “Propenoyl hydrazides” (priority 2004, dated 2009).

These compounds were tested against T1, Caspase-7 (Homo sapiens, UniProt P55210) (assay: Caspase-7 progress curve inhibition assay). Details: second-order rate constant; Ac-DEVD-AMC substrate; Pipes buffer pH 7.2.
T1 sequence (P55210 24-198 limits assumed): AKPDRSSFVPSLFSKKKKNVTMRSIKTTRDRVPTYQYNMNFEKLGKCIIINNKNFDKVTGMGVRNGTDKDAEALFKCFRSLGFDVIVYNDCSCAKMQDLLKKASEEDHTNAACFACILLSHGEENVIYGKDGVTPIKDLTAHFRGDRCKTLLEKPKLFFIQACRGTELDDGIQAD
T1 sequence (P55210 207-303 limits assumed): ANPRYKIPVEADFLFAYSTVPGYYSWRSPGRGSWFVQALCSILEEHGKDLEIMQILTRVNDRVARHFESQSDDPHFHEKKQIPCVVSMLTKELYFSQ

SMILES | k2 Caspase-7 [M⁻¹ s⁻¹]
C/C=C/C=C/C(=O)N(CC(=O)O)NC(=O)[C@@H](NC(=O)OCc1ccccc1)C(C)C (stereo in doubt) [Cbz-Val-AAsp-CH═CH—CH═CH—CH3, N^2—(N-Benzyloxyearbonylvalyl)-N^1-carboxymethyl-N^1-trans-(hexa-2,4-dienoyl)hydrazine] | 56

What follows are compounds tested against S. mansoni legumain (Schistosoma mansoni, UniProt P09841, N192C) (assay: S. mansoni legumain (SmAE) inhibition assay). Details: not given.
Chain of S. mansoni legumain (P09841 32-291 N192C): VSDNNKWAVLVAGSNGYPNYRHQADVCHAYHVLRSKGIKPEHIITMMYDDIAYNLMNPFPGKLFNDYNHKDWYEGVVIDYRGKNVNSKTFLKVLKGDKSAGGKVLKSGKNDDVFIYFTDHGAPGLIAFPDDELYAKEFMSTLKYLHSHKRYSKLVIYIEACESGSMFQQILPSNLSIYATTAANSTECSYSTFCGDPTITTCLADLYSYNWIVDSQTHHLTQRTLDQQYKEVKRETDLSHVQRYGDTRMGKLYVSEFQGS
Assay type: biochemical
Experimental: Studies with the propenoyl hydrazides using the schistosome legumain […], (Schistosoma mansoni asparaginyl endopeptidase) were also performed. […] The actual active site enzyme concentration is unknown. The lyophilized enzyme ([…]) was reconstituted in 1.5 mL 0.5 M sodium acetate, pH 4.5 containing 4 mM DTT, and left to stand at 37° C. for 3-4 hours to allow for auto-activation of the zymogen. In a black 96-well microtiter plate, 50 μL of activated enzyme was added to an equal volume of 0.1 M citrate-phosphate buffer pH 6.8 containing 4 mM DTT. Inhibitor stock solutions (20 mM) were prepared in DMSO. Serial dilutions (using water) of inhibitor were added (as 1 μL aliquots) to yield concentrations of between 2 and 0.00002 μM inhibitor. […] After incubating various inhibitor concentrations with enzyme, 100 μL of the same buffer containing 20 μM substrate (Cbz-Ala-Ala-Asn-AMC) was added to the wells and the reaction monitored at room temperature with linear kinetics up to 20 minutes. Inhibitors are tested in duplicate. A plot of the RFU/min versus the inhibitor concentration [μM] permitted calculation of an IC50 value and estimation of the kobs/[I].

SMILES | IC50 [nM]
C[C@H](NC(=O)OCc1ccccc1)C(=O)N[C@@H](C)C(=O)NN(CC(N)=O)C(=O)/C=C/C(=O)N(C)CCc1ccccc1 [Cbz-Ala-Ala-AAsn-CH═CH—CON(CH3)CH2CH2Ph, N^2—(N-Benzyloxycarbonylalanylalanyl)-N^1-carbamoylmethyl-N^1-trans-(3-(Methylphenethylcarbamoyl)propenoyl)hydrazine] | 600
COc1ccc(CN(Cc2ccccc2)C(=O)/C=C/C(=O)N(CC(N)=O)NC(=O)[C@H](C)NC(=O)[C@H](C)NC(=O)OCc2ccccc2)cc1 [Cbz-Ala-Ala-AAsn-CH═CH—CON(Bzl-4-OMe)Bzl, N^2—(N-Benzyloxycarbonylalanylalanyl)-N^1-trans-(3-benzyl-(4-methoxybenzyl)carbamoyl)propenoyl-N^1-carbamoylmethylhydrazine] | 90
C[C@H](NC(=O)OCc1ccccc1)C(=O)N[C@@H](C)C(=O)NN(CC(N)=O)C(=O)/C=C/C(=O)N(C)Cc1cccc2ccccc12 [N^2—(N-Benzyloxycarbonylalanylalanyl)-N^1-carbamoylmethyl-N^1-trans-(3-(methyl-1-naphthylmethylcarbamoyl)propenoyl)hydrazine] | 35
CC(NC(=O)OCc1ccccc1)C(=O)NC(C)C(=O)NN(CC(N)=O)C(=O)C=CC(=O)N(C)C(Cc1ccccc1)C(=O)N(C)CCc1ccccc1 (stereo not drawn) [N^2—(N-Benzyloxycarbonylalanylalanyl)-N^1-carbamoylmethyl-N^1-trans-(3-methyl-(1-methylphenethylcarbamoyl)phenylethylcarbamoylpropenoyl)hydrazine] | 750
C[C@H](NC(=O)OCc1ccccc1)C(=O)N[C@@H](C)C(=O)NN(CC(N)=O)C(=O)/C=C/C(=O)Nc1ccccc1 [Cbz-Ala-Ala-AAsn-CH═CH—CONHPh, N^2—(N-Benzyloxycarbonylalanylalanyl)-N^1-carbamoylmethyl-N^1-trans-(3-phenylcarbamoylpropenoyl)hydrazine] | 700
C[C@H](NC(=O)OCc1ccccc1)C(=O)N[C@@H](C)C(=O)NN(CC(N)=O)C(=O)/C=C/C(=O)NCc1ccccc1 [Cbz-Ala-Ala-AAsn-CH═CH—CONHBzl, N^2—(N-Benzyloxycarbonylalanylalanyl)-N^1-carbamoylmethyl-N^1-trans-(3-benzylcarbamoylpropenoyl)hydrazine] | 1000
C[C@H](NC(=O)OCc1ccccc1)C(=O)N[C@@H](C)C(=O)NN(CC(N)=O)C(=O)/C=C/C(=O)N(Cc1ccco1)Cc1ccco1 [Cbz-Ala-Ala-AAsn-CH═CH—CON(CH2-2-furyl)2, N^2—(N-Benzyloxycarbonylalanylalanyl)-N^1-carbamoylmethyl-N^1-trans-(3-bis-(2-furylmethyl)carbamoylpropenoyl)hydrazine] | 900
C[C@H](NC(=O)OCc1ccccc1)C(=O)N[C@@H](C)C(=O)NN(CC(N)=O)C(=O)/C=C/c1cccnc1 [Cbz-Ala-Ala-AAsn-CH═CH-3-Py, N^2—(N-Benzyloxycarbonylalanylalanyl)-N^1-carbamoylmethyl-N^1-trans-(3-(3-pyridyl)propenoyl)hydrazine] | > 2000
C[C@H](NC(=O)OCc1ccccc1)C(=O)N[C@@H](C)C(=O)NN(CC(N)=O)C(=O)/C=C/C(=O)N1CC=C(c2ccccc2)CC1 [Cbz-Ala-Ala-AAsn-CH═CH—CO-(4-Ph-Py), N^2—(N-Benzyloxycarbonylalanylalanyl)-N^1-carbamoylmethyl-N^1-trans-(3-(4-phenyl-5,6-dihydro-2H-pyridin-1-yloxo)propenoyl)hydrazine] | 750
C[C@H](NC(=O)OCc1ccccc1)C(=O)N[C@@H](C)C(=O)NN(CC(N)=O)C(=O)/C=C/C(=O)N(Cc1ccccc1)Cc1cccc2ccccc12 [N^2—(N-Benzyloxycarbonylalanylalanyl)-N^1-trans-(3-benzyl-1-naphthylmethylcarbamoylpropenoyl)-N^1-carbamoylmethylhydrazine] | 62
C[C@H](NC(=O)OCc1ccccc1)C(=O)N[C@@H](C)C(=O)NN(CC(N)=O)C(=O)/C=C/C(=O)N1Cc2ccccc2C1 [Cbz-Ala-Ala-AAsn-CH═CH—CO-isoindoline, N^2—(N-Benzyloxycarbonylalanylalanyl)-N^1-carbamoylmethyl-N^1-trans-(3-(1,3-dihydroisoindol-2-yloxo)propenoyl)hydrazine] | 300
C[C@H](NC(=O)OCc1ccccc1)C(=O)N[C@@H](C)C(=O)NN(CC(N)=O)C(=O)/C=C/C(=O)N(C)c1ccccc1 [Cbz-Ala-Ala-AAsn-CH═CH—CON(CH3)Ph, N^2—(N-Benzyloxycarbonylalanylalanyl)-N^1-carbamoylmethyl-N^1-trans-(3-(methylphenylcarbamoyl)propenoyl)hydrazine] | 60
C[C@H](NC(=O)OCc1ccccc1)C(=O)N[C@@H](C)C(=O)NN(CC(N)=O)C(=O)/C=C/C(=O)N1CCCCC1 [Cbz-Ala-Ala-AAsn-CH═CH—CO-Pip, N^2—(N-Benzyloxycarbonylalanylalanyl)-N^1-carbamoylmethyl-N^1-trans-(3-(1-piperidyloxo)propenoyl)hydrazine] | 1000
C[C@H](NC(=O)OCc1ccccc1)C(=O)N[C@@H](C)C(=O)NN(CC(N)=O)C(=O)/C=C/C(=O)NCc1ccc(F)cc1 [Cbz-Ala-Ala-AAsn-CH═CH—CONH-Bzl-4-F, N^2—(N-Benzyloxycarbonylalanylalanyl)-N^1-carbamoylmethyl-N^1-trans-(3-(4-fluorobenzyl)carbamoylpropenoyl)hydrazine] | 800
C[C@H](NC(=O)OCc1ccccc1)C(=O)N[C@@H](C)C(=O)NN(CC(N)=O)C(=O)/C=C/C(=O)N1CCCc2ccccc21 [N^2—(N-Benzyloxycarbonylalanylalanyl)-N^1-carbamoylmethyl-N^1-trans-(3-(3,4-dihydro-2H-quinolin-1-yloxo)propenoyl)hydrazine] | 70
C[C@H](NC(=O)OCc1ccccc1)C(=O)N[C@@H](C)C(=O)NN(CC(N)=O)C(=O)/C=C/C(=O)N(Cc1ccccc1)Cc1ccc2ccccc2c1 | 70
CCOC(=O)C=CC(=O)N(CC(N)=O)NC(=O)C(C)NC(=O)C(C)NC(=O)CCCCC1SCC2NC(=O)NC21 (stereo not drawn) [Biotinyl-Ala-Ala-AAsn-CH═CH—COOEt] | 10
C[C@H](NC(=O)OCc1ccccc1)C(=O)N[C@@H](C)C(=O)NN(CC(N)=O)C(=O)/C=C/C(=O)N(Cc1ccccc1)Cc1ccc(F)cc1 [Cbz-Ala-Ala-AAsn-CH═CH—CON(Bzl-4-F)Bzl, N^2—(N-Benzyloxycarbonylalanylalanyl)-N^1-trans-(3-benzyl(4-fluorobenzyl)carbamoylpropenoyl)-N^1-carbamoylmethylhydrazine] | 60
C[C@H](NC(=O)OCc1ccccc1)C(=O)N[C@@H](C)C(=O)NN(CC(N)=O)C(=O)/C=C/c1ccco1 [Cbz-Ala-Ala-AAsn-CH═CH-2-furyl, N^2—(N-Benzyloxycarbonylalanylalanyl)-N^1-carbamoylmethyl-N^1-trans-(3-(2-furyl)propenoyl)hydrazine] | > 2000

Same assay, conditions: S. mansoni legumain; 20 min preincubation; Cbz-Ala-Ala-Asn-AMC substrate

SMILES | IC50
CC=CC=CC(=O)N(CC(N)=O)NC(=O)C(C)NC(=O)C(C)NC(=O)OCc1ccccc1 (stereo not drawn) [Cbz-Ala-Ala-AAsn-CH═CHCH═CHCH3, N^2—(N-Benzyloxycarbonylalanylalanyl)-N^1-carbamoylmethyl-N^1-trans-trans-hexa-2,4-dienoylhydrazine] | > 2000 nM
C[C@H](NC(=O)OCc1ccccc1)C(=O)N[C@@H](C)C(=O)NN(CC(N)=O)C(=O)/C=C/C(=O)c1ccccc1 [Cbz-Ala-Ala-AAsn-CH═CH—COPh, trans-N^2—(N-Benzyloxycarbonylalanylalanyl)-N^1-carbamoyImethyl-N^1-trans-(3-benzoylpropenoyl)hydrazine] | does not inhibit
CCN(CC)C(=O)/C=C/C(=O)N(CC(N)=O)NC(=O)[C@H](C)NC(=O)[C@H](C)NC(=O)OCc1ccccc1 [Cbz-Ala-Ala-AAsn-CH═CH—CONEt2, N^2—(N-Benzyloxycarbonylalanylalanyl)-N^1-carbamoylmethyl-N^1-trans-(3-diethylcarbamoylpropenoyl)hydrazine] | > 2000 nM

Same assay, conditions: S. mansoni legumain; 20 min preincubation; Cbz-Ala-Ala-Asn-AMC substrate; listed as —COPh

SMILES | IC50 [nM]
C[C@H](NC(=O)OCc1ccccc1)C(=O)N[C@@H](C)C(=O)NN(CC(N)=O)C(=O)/C=C/C(=O)c1ccccc1 [Cbz-Ala-Ala-AAsn-CH═CH—COPh, trans-N^2—(N-Benzyloxycarbonylalanylalanyl)-N^1-carbamoyImethyl-N^1-trans-(3-benzoylpropenoyl)hydrazine] | > 2000

Same assay, conditions: S. mansoni legumain; 20 min preincubation; Cbz-Ala-Ala-Asn-AMC substrate; read-out: IC50

SMILES | IC50 [nM]
C[C@H](NC(=O)OCc1ccccc1)C(=O)N[C@@H](C)C(=O)NN(CC(N)=O)C(=O)/C=C/C(=O)N1CCCc2ccccc21 (relative stereo) [N^2—(N-Benzyloxycarbonylalanylalanyl)-N^1-carbamoylmethyl-N^1-trans-(3-(3,4-dihydro-2H-quinolin-1-yloxo)propenoyl)hydrazine] | 200

Same assay, conditions: read-out: kobs/[I]

SMILES | kinact/KI [M⁻¹ s⁻¹]
C[C@H](NC(=O)OCc1ccccc1)C(=O)N[C@@H](C)C(=O)NN(CC(N)=O)C(=O)/C=C/C(=O)N(C)Cc1cccc2ccccc12 [N^2—(N-Benzyloxycarbonylalanylalanyl)-N^1-carbamoylmethyl-N^1-trans-(3-(methyl-1-naphthylmethylcarbamoyl)propenoyl)hydrazine] | 16900
C[C@H](NC(=O)OCc1ccccc1)C(=O)N[C@@H](C)C(=O)NN(CC(N)=O)C(=O)/C=C/C(=O)N(Cc1ccccc1)Cc1cccc2ccccc12 [N^2—(N-Benzyloxycarbonylalanylalanyl)-N^1-trans-(3-benzyl-1-naphthylmethylcarbamoylpropenoyl)-N^1-carbamoylmethylhydrazine] | 6180
C[C@H](NC(=O)OCc1ccccc1)C(=O)N[C@@H](C)C(=O)NN(CC(N)=O)C(=O)/C=C/C(=O)N(Cc1ccccc1)Cc1ccc2ccccc2c1 | 6100
